Here are results for 42 molecules from patent publication US8822430B2 (Gilead Sciences, Inc., priority 2009, dated 2014).

What is called EC50 is the concentration that produces a half-maximal response.

The test system of this assay is HCV 1b RLuc cells (dicistronic genotype 1b Con1 replicon). Briefly: Renilla luciferase (RLuc)-based HCV replicon reporter assay. The assay is classed as cell-based, HCV genotype 1b. The note with it: Hepatitis C virus, 72 h, HCV 1b RLuc replicon, 72 hours; read-out: Activity (antiviral potency [EC50]). In short, it runs like this: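 EC50 values were calculated by non-linear regression of Renilla luciferase signal from lysed cells after 72 h of compound exposure. Cells harboured a genotype 1b Con1 dicistronic replicon encoding RLuc. Compounds were serially diluted in DMSO from 10 mM stocks into culture media.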
(In antiviral work, replicon cells carry a viral genome segment that copies itself.)
Regarding `COC(=O)N[C@H](C(=O)N1CCC[C@H]1c1ncc(-c2ccc(-c3cccc4c(-c5ccc(-c6cnc([C@@H]7CCCN7C(=O)[C@@H](NC(=O)OC)C(C)C)[nH]6)cc5)cccc34)cc2)[nH]1)C(C)C`, the EC50 turned out to be 26700 pM. For the molecule `COC(=O)N[C@H](C(=O)N1CCC[C@H]1c1ncc(-c2ccc(-c3cccc4c(-c5cnc([C@@H]6CCCN6C(=O)[C@@H](NC(=O)OC)C(C)C)[nH]5)cccc34)cc2)[nH]1)C(C)C`, the EC50 worked out at 3.2 pM. Next, `COC(=O)N[C@H](C(=O)N1CCC[C@H]1C(=O)Nc1nccc2cc(-c3ccc(-c4cnc([C@@H]5CCCN5C(=O)[C@@H](NC(=O)OC)C(C)C)[nH]4)cc3)ccc12)C(C)C`: 729 pM; `COC(=O)N[C@H](C(=O)N1CCC[C@H]1c1ncc(-c2ccc3c(c2)CN(C)Cc2cc(-c4cnc([C@@H]5CCCN5C(=O)[C@@H](NC(=O)OC)C(C)C)[nH]4)ccc2-3)[nH]1)C(C)C`: 11100 pM; `COC(=O)N[C@H](C(=O)N1CCC[C@H]1c1ncc(-c2ccc(-c3ccc(-c4cnc([C@@H]5CC6(CN5C(=O)[C@@H](NC(=O)OC)C(C)C)OCCO6)[nH]4)cc3)cc2)[nH]1)C(C)C`: 55.5 pM. Next, `COC(=O)N[C@@H](CCOC(F)F)C(=O)N1CCC[C@H]1c1ncc(-c2ccc(-c3ccc(-c4cnc([C@@H]5CC6(CN5C(=O)[C@@H](NC(=O)OC)C(C)C)OCCO6)[nH]4)cc3)cc2)[nH]1`: 128 pM; `COC(=O)N[C@H](C(=O)N1CC2(C[C@H]1c1ncc(-c3ccc(-c4ccc(-c5cnc([C@@H]6CCCN6C(=O)[C@@H](NC(=O)OC)C6CCOCC6)[nH]5)cc4)cc3)[nH]1)OCCO2)C(C)C`: 546 pM.

In the case of `COC(=O)N[C@@H](CCOCC(F)(F)F)C(=O)N1CCC[C@H]1c1ncc(-c2ccc(-c3ccc(-c4cnc([C@@H]5CCCN5C(=O)[C@@H](NC(=O)OC)C(C)C)[nH]4)cc3)cc2)[nH]1`, the EC50 is 27.3 pM.

For `COC(=O)N[C@@H](CCOCC(F)(F)F)C(=O)N1CCC[C@H]1c1ncc(-c2ccc(-c3ccc(-c4cnc([C@@H]5CCCN5C(=O)[C@H](CCOCC(F)(F)F)NC(=O)OC)[nH]4)cc3)cc2)[nH]1`, the EC50 turned out to be 24.4 pM. Next, `COC(=O)N[C@H](C(=O)N1CC2(C[C@H]1c1ncc(-c3ccc(-c4ccc(-c5cnc([C@@H]6CC7(CN6C(=O)[C@@H](NC(=O)OC)C(C)C)OCCO7)[nH]5)cc4)cc3)[nH]1)OCCO2)C(C)C`: 105 pM. `COC(=O)N[C@H](C(=O)N1CCC[C@H]1c1ncc(-c2ccc(-c3ccc(-c4cnc([C@H]5CC6(CCC6)ON5C(=O)[C@@H](NC(=O)OC)C(C)C)[nH]4)cc3)cc2)[nH]1)C(C)C`: the EC50 stood at 110 pM.

As to `CC[C@H](C)[C@H](NC(=O)OC)C(=O)N1C[C@@H](C#N)C[C@H]1c1ncc(-c2ccc3cc(-c4ccc(-c5cnc([C@@H]6CC7(CC7)CN6C(=O)[C@@H](NC(=O)OC)C(C)C)[nH]5)cc4)ccc3c2)[nH]1`, the EC50 was 10 pM. In the case of `COC(=O)N[C@H](C(=O)N1OC2(CCC2)C[C@H]1c1ncc(-c2ccc(-c3ccc(-c4cnc([C@@H]5CC6(CCC6)ON5C(=O)[C@@H](NC(=O)OC)C(C)C)[nH]4)cc3)cc2)[nH]1)C(C)C`, the concentration for a half-maximal effect (EC50) is 5.4 pM.

Turning to `COC(=O)N[C@@H](CCOC(F)F)C(=O)N1CCC[C@H]1c1ncc(-c2ccc(-c3ccc4cc(-c5cnc([C@@H]6CC7(CC7)CN6C(=O)[C@@H](NC(=O)OC)C(C)C)[nH]5)ccc4c3)cc2)[nH]1`, the EC50 came out at 5.2 pM. Next, `COC(=O)N[C@H](C(=O)N1CCC[C@H]1c1ncc(-c2ccc(-c3ccc(-c4cnc([C@@H]5C[C@H](COC(F)F)CN5C(=O)[C@@H](NC(=O)OC)C(C)C)[nH]4)cc3)cc2)[nH]1)C(C)C`: 15 pM; `COC(=O)N[C@H](C(=O)N1CCC[C@H]1c1ncc(-c2ccc(-c3ccc(-c4cnc([C@@H]5C[C@@H](COC(F)F)CN5C(=O)[C@@H](NC(=O)OC)C(C)C)[nH]4)cc3)cc2)[nH]1)C(C)C`: 12.9 pM. `COC(=O)NC(C(=O)N1CCC[C@H]1c1ncc(-c2ccc3cc(-c4ccc(-c5cnc([C@@H]6CCCN6C(=O)[C@@H](NC(=O)OC)C(C)C)[nH]5)cc4)ccc3c2)[nH]1)c1ccccc1` (stereo partly drawn): the EC50 worked out at 9.2 pM.

`COC(=O)N[C@H](C(=O)N1CCC[C@H]1c1ncc(-c2ccc(-c3ccc4cc(-c5cnc([C@@H]6CCCN6C(=O)[C@@H](NC(=O)OC)C6CCOCC6)[nH]5)ccc4c3)cc2)[nH]1)C(C)C`: the EC50 came to 19.3 pM. Next, `COC(=O)N[C@H](C(=O)N1CCC[C@H]1c1ncc(-c2ccc3cc(-c4ccc(-c5cnc([C@@H]6CCCN6C(=O)[C@@H](NC(=O)OC)C6CCOCC6)[nH]5)cc4)ccc3c2)[nH]1)C1CCCCC1`: 11.6 pM; `COC(=O)N[C@H](C(=O)N1CCC[C@H]1c1ncc(-c2ccc3cc(-c4ccc(-c5cnc([C@@H]6CCCN6C(=O)[C@@H](NC(=O)OC)C6CCOCC6)[nH]5)cc4)ccc3c2)[nH]1)C(C)C`: 13.1 pM.

As for `COC(=O)N[C@H](C(=O)N1CCC[C@H]1c1ncc(-c2ccc3cc(-c4ccc(-c5cnc([C@@H]6CCCN6C(=O)[C@@H](NC(=O)OC)C6CCCCC6)[nH]5)cc4)ccc3c2)[nH]1)C(C)C`, the EC50 is 9.2 pM. Next, `COC(=O)N[C@H](C(=O)N1CCC[C@H]1c1ncc(-c2cc3c(C)c4sc(-c5cnc([C@@H]6CCCN6C(=O)[C@@H](NC(=O)OC)C(C)C)[nH]5)cc4c(C)c3s2)[nH]1)C(C)C`: 16.6 pM; `COC(=O)N[C@H](C(=O)N1CCC[C@H]1c1ncc(-c2ccc3cc(-c4ccc(-c5cnc([C@@H]6CCCN6C(=O)[C@H](NC(=O)OC)c6ccccc6)[nH]5)cc4)ccc3c2)[nH]1)C(C)C`: 8.1 pM. Next, `COC(=O)N[C@H](C(=O)N1CCC[C@H]1c1ncc(-c2ccc(-c3ccc4cc(-c5cnc([C@@H]6CCCN6C(=O)[C@@H](NC(=O)OC)C(C)C)[nH]5)ccc4c3)cc2)[nH]1)c1ccccc1`: 27.2 pM; `COC(=O)NC(C(=O)N1CCC[C@H]1c1ncc(-c2ccc(-c3ccc4cc(-c5cnc([C@@H]6CCCN6C(=O)C(NC(=O)OC)c6ccccc6)[nH]5)ccc4c3)cc2)[nH]1)c1ccccc1` (stereo partly drawn): 22.8 pM.

Take `COC(=O)N[C@H](C(=O)N1CCC[C@H]1c1ncc(-c2cc3cc4sc(-c5cnc([C@@H]6CCCN6C(=O)[C@@H](NC(=O)OC)C(C)C)[nH]5)cc4cc3s2)[nH]1)C(C)C`: the EC50 is 7.7 pM. Next, `COC(=O)NC(C(=O)N1CCC[C@H]1c1ncc(-c2ccc(-c3ccc4cc(-c5cnc([C@@H]6CCCN6C(=O)[C@@H](NC(=O)OC)C(C)C)[nH]5)ccc4c3)cc2)[nH]1)=C1CCOCC1`: 48.3 pM; `COC(=O)N[C@H](C(=O)N1CCC[C@H]1c1ncc(-c2ccc3cc(-c4ccc(-c5cnc([C@@H]6CCCN6C(=O)[C@@H](NC(=O)OC)C6Cc7ccccc7C6)[nH]5)cc4)ccc3c2)[nH]1)C(C)C`: 10.4 pM. For `COC(=O)N[C@H](C(=O)N1CCC[C@H]1c1ncc(-c2ccc(-c3ccc4cc(-c5cnc([C@@H]6CCCN6C(=O)[C@@H](NC(=O)OC)C6CCOCC6)[nH]5)ccc4c3)cc2)[nH]1)C1CCOCC1`, the EC50 was found to be 68.6 pM. Regarding `COC(=O)N[C@H](C(=O)N1CCC[C@H]1c1ncc(-c2cc3c(OC)c4sc(-c5cnc([C@@H]6CCCN6C(=O)[C@@H](NC(=O)OC)C(C)C)[nH]5)cc4c(OC)c3s2)[nH]1)C(C)C`, the EC50 came to 16.1 pM.

Consider `COC(=O)N[C@H](C(=O)N1CCC[C@H]1c1ncc(-c2ccc3c(c2)COc2c-3ccc3cc(-c4cnc([C@@H]5CCCN5C(=O)[C@@H](NC(=O)OC)C(C)C)[nH]4)ccc23)[nH]1)C(C)C`, for which the EC50 worked out at 4.4 pM. Next, `COC(=O)N[C@H](C(=O)N1CCC[C@H]1c1ncc(C23CCC(c4ccc(-c5cnc([C@@H]6CCCN6C(=O)[C@H](NC(=O)OC)C(C)C)[nH]5)cc4)(CC2)CC3)[nH]1)C(C)C`: 39700 pM. Next, `COC(=O)N[C@H](C(=O)N1CCC[C@H]1c1ncc(C23CCC(c4cccc(-c5cnc([C@@H]6CCCN6C(=O)[C@H](NC(=O)OC)C(C)C)[nH]5)c4)(CC2)CC3)[nH]1)C(C)C`: not below 44400 pM. For `COC(=O)N[C@H](C(=O)N1CCC[C@H]1c1ncc(-c2ccc3cc(-c4ccc(-c5cnc([C@@H]6CCCN6C(=O)[C@H](NC(=O)OC)C6CCOCC6)[nH]5)cc4)ccc3c2)[nH]1)C(C)C`, the EC50 was 171 pM. On to `COC(=O)N[C@H](C(=O)N1CCC[C@H]1c1ncc(-c2cc3c(C)c4sc(-c5cnc([C@@H]6CCCN6C(=O)[C@@H](NC(=O)OC)C6CCOCC6)[nH]5)cc4c(C)c3s2)[nH]1)C1CCOCC1`, for which the EC50 was 106 pM. Next, `COC(=O)N[C@H](C(=O)N1CCC[C@H]1c1ncc(-c2cc3c(OC)c4sc(-c5cnc([C@@H]6CCCN6C(=O)[C@@H](NC(=O)OC)C6CCOCC6)[nH]5)cc4c(OC)c3s2)[nH]1)C1CCOCC1`: 419 pM; `COC(=O)NC(C(=O)N1CCC[C@H]1c1ncc(-c2cc3c(C)c4sc(-c5cnc([C@@H]6CCCN6C(=O)C(NC(=O)OC)c6ccccc6)[nH]5)cc4c(C)c3s2)[nH]1)c1ccccc1` (stereo partly drawn): 21.4 pM; `COC(=O)NC(C(=O)N1CCC[C@H]1c1ncc(-c2cc3c(OC)c4sc(-c5cnc([C@@H]6CCCN6C(=O)C(NC(=O)OC)c6ccccc6)[nH]5)cc4c(OC)c3s2)[nH]1)c1ccccc1` (stereo partly drawn): 26.2 pM. For `COC(=O)NC(C(=O)N1CCC[C@H]1c1ncc(-c2ccc(-c3ccc4cc(-c5cnc([C@@H]6CCCN6C(=O)[C@@H](NC(=O)OC)C(C)C)[nH]5)ccc4c3)cc2)[nH]1)C1CCS(=O)(=O)CC1` (stereo partly drawn), the EC50 came out at 135 pM. Next, `COC(=O)N[C@H](C(=O)N1CCC[C@H]1c1ncc(-c2ccc3cc(-c4ccc(-c5cnc([C@@H]6CCCN6C(=O)[C@H](c6ccccc6)C(C)C)[nH]5)cc4)ccc3c2)[nH]1)C(C)C`: 11.2 pM; `COC(=O)N[C@H](C(=O)N1CCC[C@H]1c1ncc(-c2ccc3cc(-c4ccc(-c5cnc([C@@H]6CCCN6C(=O)[C@H](NC(=O)OC)C6CCCCC6)[nH]5)cc4)ccc3c2)[nH]1)C(C)C`: 97.2 pM; `COC(=O)NC(C(=O)N1CCC[C@H]1c1ncc(-c2cc3sc(-c4ccc(-c5cnc([C@@H]6CCCN6C(=O)[C@@H](NC(=O)OC)C(C)C)[nH]5)cc4)cc3s2)[nH]1)C(C)C` (stereo partly drawn): 12.9 pM.
